The results in this text go back to ChEMBL document CHEMBL1146941, “Synthesis of pyrazinamide Mannich bases and its antitubercular properties” (2006).

Broadly, the MIC90 is the lowest concentration that inhibits either 90% of growth or 90% of the strains tested, depending on the study. Low values mean greater potency, high ones weaker potency.

≈ marks a conversion by molar mass, not a printed value.

The test concerns Mycobacterium tuberculosis. Briefly: Antimycobacterial activity against multi drug resistant Mycobacterium tuberculosis. The test is classed as functional.
`CCn1cc(C(=O)O)c(=O)c2cc(F)c(N3CCN(CNC(=O)c4cnccn4)CC3)c(F)c21`: the MIC90 came to 0.78 µg/mL (≈ 1.65 µM). With `O=C(NCN1CCN(c2ncccn2)CC1)c1cnccn1` the figure was > 25 µg/mL; with `O=C(NCN1CCN(c2cc3c(cc2F)c(=O)c(C(=O)O)cn3C2CC2)CC1)c1cnccn1`, 0.78 µg/mL (≈ 1.67 µM); with `O=C(NCN1CCN(Cc2ccccc2)CC1)c1cnccn1`, > 25 µg/mL. The same measure for `CN1CCN(CNC(=O)c2cnccn2)CC1`: > 25 µg/mL; for `O=C(NCN1CCN(c2ccccc2)CC1)c1cnccn1`: > 25 µg/mL; for `CCn1cc(C(=O)O)c(=O)c2cc(F)c(N3CCN(CNC(=O)c4cnccn4)CC3)cc21`: 0.78 µg/mL (≈ 1.72 µM). The same measure for `O=C(NCN1CCN(c2ccc([N+](=O)[O-])cc2)CC1)c1cnccn1`: 6.25 µg/mL (≈ 18.3 µM); for `COc1cccc(N2CCN(CNC(=O)c3cnccn3)CC2)c1`: > 25 µg/mL; for `O=C(NCN1CCN(c2ccc(C(F)(F)F)cc2)CC1)c1cnccn1`: 1.76 µg/mL (≈ 4.82 µM). As to `O=C(NCN1CCN(c2cccc(Cl)c2)CC1)c1cnccn1`, the MIC90 turned out to be 6.25 µg/mL (≈ 18.8 µM). The same measure for `O=C(NCN1CCN(c2ccc(Cl)cc2)CC1)c1cnccn1`: 12.5 µg/mL (≈ 37.7 µM); for `COc1ccc(N2CCN(CNC(=O)c3cnccn3)CC2)cc1`: > 25 µg/mL; for `NC(=O)c1cnccn1` [PYRAZINAMIDE]: > 25 µg/mL. With `COc1ccccc1N1CCN(CNC(=O)c2cnccn2)CC1` the figure was > 25 µg/mL; with `O=C(NCN1CCN(c2ccc(F)cc2)CC1)c1cnccn1`, 1.76 µg/mL (≈ 5.58 µM). The same measure for `O=C(NCN1CCN(c2ccccn2)CC1)c1cnccn1`: > 25 µg/mL.
